Source: PubChem BioAssay AID330 (DTP/NCI, 2004)
Values joined by “and” are separate entries in the source; they are usually repeats but may differ in a detail not shown here. Identical values can stand only once. Inconclusive results and toxic doses are left out.

System: P388 leukemia ip, CD2F1 mice, survival T/C
Assay: NCI In Vivo Anticancer Drug Screen. Data for tumor model P388 Leukemia (intraperitoneal) in CD2F1 (CDF1) mice
Conditions: endpoint: median survival time, higher = longer survival
In short: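 Mice carrying the transplanted tumor received test compound or vehicle. Survival was recorded in each group, and the value is the treated-group measurement divided by that of the vehicle-treated control group.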

[1] = dose: 50.0 mg/kg/injection, schedule: Q01DX009 (ip), vehicle: Klucel (hydroxypropylcellulose) (HPC)
[2] = dose: 100.0 mg/kg/injection, schedule: Q01DX009 (ip), vehicle: Klucel (hydroxypropylcellulose) (HPC)
[3] = dose: 200.0 mg/kg/injection, schedule: Q01DX009 (ip), vehicle: Klucel (hydroxypropylcellulose) (HPC)
[4] = dose: 60.0 mg/kg/injection, schedule: Q01DX005 (ip), vehicle: saline with Tween-80
[5] = dose: 120.0 mg/kg/injection, schedule: Q01DX005 (ip), vehicle: saline with Tween-80
[6] = dose: 240.0 mg/kg/injection, schedule: Q01DX005 (ip), vehicle: saline with Tween-80

## CC(=O)Nc1ccc2c(c1)/C(=C/c1ccc(N(C)C)cc1)c1ccccc1-2
dose: 25.0 mg/kg/injection, schedule: Q01DX009 (ip), vehicle: Klucel (hydroxypropylcellulose) (HPC)
  T/C: 91 % of control
[1]
  T/C: 96 % of control
[2]
  T/C: 96 % of control
[3]
  T/C: 100 % of control

## COC(=O)CC1(O)C(=O)OCc2c1cc1n(c2=O)Cc2c-1nc1ccccc1c2OC (centres undefined)
dose: 12.5 mg/kg/injection, schedule: Q01DX009 (ip), vehicle: saline
  T/C: 167 % of control
dose: 50.0 mg/kg/injection, schedule: Q01DX009 (ip), vehicle: saline
  T/C: 194 % of control
dose: 100.0 mg/kg/injection, schedule: Q01DX009 (ip), vehicle: saline
  T/C: 150 % of control and 184 % of control
dose: 100.0 mg/kg/injection, schedule: Q01DX009 (ip), vehicle: suspension in saline
  T/C: 86 % of control

## C=C(C)C#CC1(O)C=C(OC)C(OC)=CC1=O (centres undefined)
[4]
  T/C: 105 % of control
[5]
  T/C: 107 % of control
[6]
  T/C: 88 % of control

## C/C(=N\N=c1/cc(Cl)n(C)c(=O)n1C)c1ccc(Cl)cc1
[1]
  T/C: 102 % of control
[2]
  T/C: 99 % of control

## CC(=O)NNC(=S)Nc1ccccc1
dose: 50.0 mg/kg/injection, schedule: Q01DX005 (ip), vehicle: saline with Tween-80
  T/C: 100 % of control
dose: 100.0 mg/kg/injection, schedule: Q01DX005 (ip), vehicle: saline with Tween-80
  T/C: 101 % of control
dose: 200.0 mg/kg/injection, schedule: Q01DX005 (ip), vehicle: saline with Tween-80
  T/C: 100 % of control

## S=[As]1(c2cccc3ccccc23)c2ccccc2-c2ccccc21
dose: 30.0 mg/kg/injection, schedule: Q01DX009 (ip), vehicle: saline with Tween-80
  T/C: 106 % of control
dose: 60.0 mg/kg/injection, schedule: Q01DX009 (ip), vehicle: saline with Tween-80
  T/C: 100 % of control
dose: 120.0 mg/kg/injection, schedule: Q01DX009 (ip), vehicle: saline with Tween-80
  T/C: 110 % of control

## COc1ccc2c(c1)CCc1c-2nc[nH]c1=O
dose: 100.0 mg/kg/injection, schedule: Q04DX002 (ip), vehicle: saline with Tween-80
  T/C: 103 % of control
dose: 200.0 mg/kg/injection, schedule: Q04DX002 (ip), vehicle: saline with Tween-80
  T/C: 96 % of control
dose: 400.0 mg/kg/injection, schedule: Q04DX002 (ip), vehicle: saline with Tween-80
  T/C: 96 % of control

## COc1ccc(-n2cc(-c3ccc(Cl)cc3)c3c(N)ncnc32)cc1
[4]
  T/C: 105 % of control
[5]
  T/C: 94 % of control
[6]
  T/C: 86 % of control

## CC(=O)OCC1OC(OC(C)=O)C(NC(=O)CN(Cc2ccccc2)S(C)(=O)=O)C(OC(C)=O)C1OC(C)=O (centres undefined)
dose: 12.5 mg/kg/injection, schedule: Q01DX009 (ip), vehicle: other
  T/C: 91 % of control
dose: 25.0 mg/kg/injection, schedule: Q01DX009 (ip), vehicle: other
  T/C: 99 % of control
dose: 50.0 mg/kg/injection, schedule: Q01DX009 (ip), vehicle: other
  T/C: 96 % of control
dose: 100.0 mg/kg/injection, schedule: Q01DX009 (ip), vehicle: other
  T/C: 93 % of control
dose: 200.0 mg/kg/injection, schedule: Q01DX009 (ip), vehicle: other
  T/C: 105 % of control

## CN(C)c1ccc(/C=C/c2ccc3c(c2)OCO3)cc1
[1]
  T/C: 98 % of control
[2]
  T/C: 95 % of control
[3]
  T/C: 98 % of control

## ONC(=Nc1cccc2ccccc12)C(=Nc1cccc2ccccc12)NO
dose: 60.0 mg/kg/injection, schedule: Q01DX005 (ip), vehicle: Klucel (hydroxypropylcellulose) (HPC)
  T/C: 99 % of control
dose: 120.0 mg/kg/injection, schedule: Q01DX005 (ip), vehicle: Klucel (hydroxypropylcellulose) (HPC)
  T/C: 102 % of control
dose: 240.0 mg/kg/injection, schedule: Q01DX005 (ip), vehicle: Klucel (hydroxypropylcellulose) (HPC)
  T/C: 103 % of control

## O=C1NC(=O)c2ncccc21
dose: 100.0 mg/kg/injection, schedule: Q04DX003 (ip), vehicle: saline with Tween-80
  T/C: 100 % of control
dose: 200.0 mg/kg/injection, schedule: Q04DX003 (ip), vehicle: saline with Tween-80
  T/C: 100 % of control
dose: 400.0 mg/kg/injection, schedule: Q04DX003 (ip), vehicle: saline with Tween-80
  T/C: 100 % of control
